Measurements as given in patent US3984543A, “Therapeutic methods employing cyclic aminophosphonic acids” (Henkel & Cie G.m.b.H., priority 1973, dated 1976).

Experiments:
[1] = Inhibition of precipitation of NH4 MgPO4 in vitro; assay type: physicochemical; conditions: pH 7.4, 72 hours
Method: Since the precipitation of NH4 MgPO4 is occasionally the cause of the formation of urinary calculus, the inhibition of the precipitation of NH4 MgPO4 was also tested in aqueous solutions at pH 7.4. The test was carried out as follows.
A fixed amount of the phosphonic acid was weighed into a beaker and dissolved with 25 ml of a phosphate solution (13.799 gm of NaH2 PO4.H2 O/liter) as well as with 40 ml of distilled water, and standardized with NaOH to a pH of 7.4. After adding 25 ml of a Mg^+^+ and NH4 ^+ solution (20.333 gm of MgC12.6H2 O and 5.349 gm of NH4 Cl/liter, standardized to a pH of 7.4), the solution was brought up with distilled H2 O to 100 ml. Then the sample was covered and evaluated after 72 hours for amount and appearance of the precipitate. The explanation of the data in the left column is to be found in Example 8.

[2] = Calcium phosphate dissolution in vitro (CaHPO4 test); assay type: physicochemical; conditions: for Consumption Sequestering Agent Solution: 10 mg/ml solution, pH 7.4, clear solution after 1 hour; for mg CaHPO4 dissolved / gm Sequestering Agent: pH 7.4, 1 hour
Method: Essential tests for the effectiveness of the compounds in physiological systems are in vitro tests for the dissolving of freshly precipitated CaHPO4, as well as preventing the precipitation of NH4 MgPO4 at a pH of 7.4. The "CaHPO4 test" was carried out as follows.
By combining 25 ml of a phosphate solution (1.38 gm of NaH2 PO4.H2 O/liter, standardized to a pH of 7.4) and 25 ml of a calcium solution (1.45 gm of CaCl2.2H2 O/liter, standardized to a pH of 7.4), a precipitate of CaHPO4 was produced. Thereafter, so much of a solution of the sequestering agent (at a concentration of 10 mg/ml) was added from a burette that a clear solution was obtained after standing for 1 hour.

[3] = Sequestration of calcium (modified Hampshire test); assay type: physicochemical; conditions: pH 11; for Consumption of Sequestering Agent Solution: 1 gm sequestering agent in 50 ml H2O, until CaCO3 precipitate redissolved
Method: In the investigation of the sequestration of calcium, a modified Hampshire test was employed and worked as follows:
1 gm of the sequestering agent was dissolved in 50 ml of H2 O, adjusted with NaOH to a pH of 11. 50 ml of a Ca^+^+ solution (1470 mg of CaCl2.2H2 0/1) were mixed with 100 ml of a sodium carbonate solution (7.15 gm NaCO3.10H2 O/l.). Then the solution of the sequestering agent was added in drops from a burette until the calcium carbonate precipitate was redissolved. The values formed have been reported in Table I. For the sake of simplicity, only the value for n and the various substituents for R according to Formula I are indicated in the left column of the Table.

[4] = Apatite crystallization delay test in vitro; assay type: physicochemical; conditions: 2 mg, pH 7.4, 35°C
Method: Supersaturated solutions of Ca^+^+ and HPO4 ^-^- ions are relatively stable, but crystallize after the addition of an apatite nuclei according to the reaction
with the release of protons. The reaction can, therefore, be readily observed by titration with a base at a constant pH.
400 ml of 0.0008 molar KH2 PO4 solution were mixed with 45 ml of a 0.012 molar CaCl2 solution, and the clear solution was standardized with KOH to a pH of 7.4, after being brought to a temperature of 35°C. […] The crystallization set in immediately and was followed by "pH-Stat" titration with 0.05 N KOH.
If a small amount (2 mg) of one of the cyclic aminophosphonic acids of the invention was added to the solution before the apatite was added, the crystallization was greatly delayed.
For simplicity's sake, only the value for n and the various substituents for R according to Formula I in Example 8 are indicated in the left column of the Table.

[5] = Acute toxicity (LD50) in mice; conditions: mouse, in vivo
Description: The new phosphonic acids are characterized by a very low acute toxicity. The following LD50 values of Table IV were found in mice. For the explanation of the data in the left column of Table IV, see Example 8.

[6] = Threshold effect: prevention of precipitation of poorly soluble calcium compounds by substoichiometric amounts; assay type: physicochemical; conditions: 30 minutes
Method: The prevention of the precipitation of poorly soluble calcium compounds by substoichiometric amounts of a sequestering agent was determined at 60° and 95° C as follows:
25 ml of 80° dH (German hardness) water (corresponding to 800 mg CaO/l.) were mixed with a 10 ml of a solution of the sequestering agent (concentration: 300 mg/l.). After dilution with distilled water to 70 ml, 25 ml of a sodium carbonate solution containing 4 gm/l. were added and the solution was brought to 100 ml. After heating for 30 minutes at the indicated temperature, any precipitate formed was separated. The sequestering agent was removed from a measured amount of the clear filtrate by means of an anion exchange resin. Then the content of the dissolved calcium in this sample was determined by complexometry (according to Scharzenbach).

Row | Structure (SMILES) | Consumption Sequestering Agent Solution [2] | mg CaHPO4 dissolved / gm Sequestering Agent [2] | Consumption of Sequestering Agent Solution [3] | mg CaCO3 Sequestered per gm of Compound [3] | Delay of crystallization in % after 4 Hours [4] | Delay of crystallization in % after 8 Hours [4] | LD50 [5] | CaO in Solution ([6]; 60 °C) | CaO precipitated ([6]; 60 °C) | CaO in Solution ([6]; 95 °C) | CaO precipitated ([6]; 95 °C) | other results
1 | CNC1(P(=O)(O)O)CCCC(=O)N(C)P1(=O)O (stereo not shown) [n=3, R=CH3, 1-Methyl-2-hydroxy-2-oxo-3-methylamino-3-phosphonyl-7-oxo-1-aza-2-phospha-cycloheptane] | 5.0 mL | 680 mg CaHPO4 / gm Sequestering Ag | 3.8 mL | 660 mg CaCO3 per gm of Compound | – | – | – | – | – | – | – | Precipitation after 72 hours: NH4 MgPO4 crystals ([1]; 72 mg): Few NH4 MgPO4 crystals; Precipitation after 72 hours: NH4 MgPO4 crystals ([1]; 144 mg): No NH4 MgPO4 crystals
2 | CCNC1(P(=O)(O)O)CCC(=O)N(CC)P1(=O)O (stereo not shown) [n=2, R=C2 H5, 1-Ethyl-2-hydroxy-2-oxo-3-ethylamino-3-phosphonyl-6-oxo-1-aza-2-phospha-cyclohexane] | – | – | 2.25 mL | 1110 mg CaCO3 per gm of Compound | – | – | – | – | – | – | – | –
3 | CNC1(P(=O)(O)O)CCC(=O)N(C)P1(=O)O (stereo not shown) [n=2, R=CH3, 1-Methyl-2-hydroxy-2-oxo-3-methylamino-3-phosphonyl-6-oxo-1-aza-2-phospha-cyclohexane] | 4.0 mL | 850 mg CaHPO4 / gm Sequestering Ag | 3.0 mL | 840 mg CaCO3 per gm of Compound | 84% | 76% | – | – | – | – | – | Precipitation after 72 hours: NH4 MgPO4 crystals ([1]; 145 mg): Very few NH4 MgPO4 crystals; Precipitation after 72 hours: cloudiness ([1]; 145 mg): no cloudiness; Precipitation after 72 hours: NH4 MgPO4 crystals ([1]; 217.5 mg): No NH4 MgPO4 crystals; Precipitation after 72 hours: cloudiness ([1]; 217.5 mg): no
4 | NC1(P(=O)(O)O)CCCC(=O)NP1(=O)O (stereo not shown) [n=3, R=H, 2-Hydroxy-2-oxo-3-amino-3-phosphonyl-7-oxo-1-aza-2-phospha-cycloheptane] | 2.5 mL | 1350 mg CaHPO4 / gm Sequestering Ag | 3.1 mL | 810 mg CaCO3 per gm of Compound | 96% | 96% | 10000 mg/kg | 99.6% | 0.4% | 99.5% | 0.5% | Precipitation after 72 hours: NH4 MgPO4 crystals ([1]; 68.5 mg): Fewer NH4 MgPO4 crystals; Precipitation after 72 hours: cloudiness ([1]; 68.5 mg): great cloudiness
5 | NC1(P(=O)(O)O)CC(=O)NP1(=O)O (stereo not shown) [n=1, R=H, 2-Hydroxy-2-oxo-3-amino-3-phosphonyl-5-oxo-1-aza-2-phospha-cyclopentane] | 8.0 mL | 420 mg CaHPO4 / gm Sequestering Ag | 2.6 mL | 1040 mg CaCO3 per gm of Compound | – | – | – | 76.1% | 23.9% | 87.7% | 12.3% | –
6 | NC1(P(=O)(O)O)CCC(=O)NP1(=O)O (stereo not shown) [n=2, R=H, 2-Hydroxy-2-oxo-3-amino-3-phosphonyl-6-oxo-1-aza-2-phospha-cyclohexane] | 6.0 mL | 570 mg CaHPO4 / gm Sequestering Ag | 2.6 mL | 1040 mg CaCO3 per gm of Compound | – | – | 3200 mg/kg | 99.6% | 0.4% | 99.5% | 0.5% | Precipitation after 72 hours: NH4 MgPO4 crystals ([1]; 61 mg): Few NH4 MgPO4 crystals; Precipitation after 72 hours: cloudiness ([1]; 61 mg): some; Precipitation after 72 hours: NH4 MgPO4 crystals ([1]; 122 mg): No NH4 MgPO4 crystals; Precipitation after 72 hours: cloudiness ([1]; 122 mg): great
